Several values for one entry are separate records, joined by “and”; a condition that tells them apart may be missing. Equal values may be shown once. Residues, ends and D or L forms follow the SMILES beside them. *: point of attachment. X1 = O=C(/N=C(/NCc1ccc(C(=O)*)cc1)Nc1ccc(Br)cc1)c1ccccc1; code Z = not defined here
What was measured:
[1] = test system: L. infantum promastigotes; assay: anti-promastigote assay (MTT) against L. infantum; format: cell-based, Leishmania infantum; conditions: 72 h
Method: (§1) L. amazonensis promastigotes (MPRO/BR/1972/M1841-LV-79) were grown in LIT culture medium, while L. infantum promastigotes (MNYC/BZ/62/M379) were cultivated in 199 culture medium (Sigma-Aldrich, St. Louis, MO, USA) supplemented with 10% heat-inactivated fetal bovine serum (FBS; Gibco/Invitrogen) and in 10% urine, at 28 °C, until reaching the mid-log phase of growth. Macrophages were sourced from the peritoneal cavity of Swiss mice, using the methodology outlined by de Almeida et al. 2017 [60]. For the anti-promastigote assays, L. infantum and L. amazonensis cultures in the exponential growth phase were transferred to 96-well plates at a final concentration of 1 × 10^7 promastigotes mL^−1. Subsequently, the tested compounds were added at concentrations ranging from 1.28 to 100 µmol L^−1 to assess their anti-promastigote activity. After 72 h, viable promastigotes were determined using the MTT method.
(§2) Anti-promastigote and anti-amastigote assays, the infection index (percentage of infected cells * number of intracellular parasites/numbers of infected cells), and their cytotoxic activity were conducted as previously described.

[2] = test system: L. amazonensis promastigotes; assay: microbe, parasite or virus in culture; conditions: for IC50: read-out: Promastigote IC50 L. amazonensis in active serum
Text: (§3) Several strategies were employed to increase the stability of peptides, including the incorporation of non-natural amino acids, modifications of the N- and/or C-terminal, cyclization, the use of non-peptide structures (peptidomimetics), and multimerization.

[3] = test system: L. infantum promastigotes; assay: microbe, parasite or virus in culture; conditions: for IC50: read-out: Promastigote IC50 L. infantum in active serum
Text: as §3

[4] = test system: L. amazonensis promastigotes; assay: anti-promastigote assay (MTT) against L. amazonensis; format: cell-based, Leishmania amazonensis; conditions: 72 h
Method: as §1, §2

[5] = molecular target: T1, cysteine protease LmCPB2.8∆CTE (CPB) (Leishmania mexicana, UniProt P36400); assay: cysteine protease (CPB) enzyme inhibition assay; format: biochemical, Leishmania major; conditions: for inhibition at 20 µM: read-out: CPB Inhibitory Activity 20 μM, 20 μM
Method: CPB inhibition experiments were performed as described previously by Moreira et al. 2022 [13]. The results were expressed as mean ± standard deviation of two independent replicates.

[6] = test system: L. amazonensis intracellular amastigotes; format: cell-based, Leishmania amazonensis
Method: as §2

[7] = cytotoxic activity on peritoneal macrophages; format: cell-based, Swiss mice; conditions: Swiss, mouse
Method: For the anti-promastigote assays, L. infantum and L. amazonensis cultures in the exponential growth phase were transferred to 96-well plates at a final concentration of 1 × 10^7 promastigotes mL^−1. […] After 72 h, viable promastigotes were determined using the MTT method.
as §2

[8] = test system: L. infantum intracellular amastigotes; format: cell-based, Leishmania infantum
Method: as §2

[9] = molecular target: T1, cysteine protease LmCPB2.8∆CTE (CPB); conditions: irreversible inhibitor ref 13; cited from earlier work
[10] = molecular target: cathepsin B; parameters: method as in PMID 12574338; conditions: cited from earlier work
[11] = eukaryotic membrane mimetic POPC/cholesterol, 50 μM
[12] = culture medium with active fetal bovine serum
[13] = peritoneal macrophages, Table 1 (L. amazonensis series)
[14] = peritoneal macrophages, Table 2 (L. infantum series)

T1 sequence (P36400 126-343): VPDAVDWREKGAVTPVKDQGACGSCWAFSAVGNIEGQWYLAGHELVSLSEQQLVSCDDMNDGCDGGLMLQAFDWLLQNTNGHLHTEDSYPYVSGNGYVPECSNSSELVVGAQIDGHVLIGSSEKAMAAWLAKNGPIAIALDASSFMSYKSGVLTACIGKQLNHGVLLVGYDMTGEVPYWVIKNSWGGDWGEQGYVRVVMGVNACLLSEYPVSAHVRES

Molecule: N=C(N)NCCC[C@H](NC(=O)[C@H](CCCNC(=N)N)NC(=O)[C@H](CCC(N)=O)NC(=O)[C@H](CCCNC(=N)N)NC(=O)[C@H](CCCNC(=N)N)NC(=O)[C@H](CCCCN)NC(=O)[C@H](CCCCN)NC(=O)[C@H](CCCNC(=N)N)NC(=O)CNC(=O)[C@@H](N)Cc1ccc(O)cc1)C(=O)O [TAT, reference compound] (H-YGRKKRRQRR-OH; N-terminus assumed)
- Promastigote IC50 [1]: no leishmanicidal activity
- Promastigote IC50 L. amazonensis in active serum [2, 12]: did not display anti-promastigote activity
- Promastigote IC50 L. infantum in active serum [3, 12]: did not display anti-promastigote activity
- Promastigote IC50 [4]: no activity
- inhibition at 20 µM [5]: 9.42 ± 0.01%
- Amastigote IC50 [6]: no activity
- CC50 [7, 13]: > 1000 µM
- CC50 [7, 14]: > 2000 µM
- Amastigote IC50 [8]: no leishmanicidal activity

Molecule: CC(C)C[C@H](NC(=O)[C@H]1O[C@@H]1C(=O)O)C(=O)NCCCCN=C(N)N (relative stereo) [Compound E64, L-trans-epoxysuccinyl-leucylamido-(4-guanidino)butane]
- inhibition of Leishmania CPB (potency range) [9]: nanomolar range

Molecule: Z-Arg-Leu-Val-Gly-Ile-Val-Ome ({code Z}-RLVGIV-OMe; reading uncertain; also: printed as Z-Arg-Leu-Val-Gly-Ile-Val-Ome)
- Ki [10]: 88 pM

Molecule: C[C@@H]1[C@H](O)[C@@H](C)/C=C/C=C/C=C/C=C/C=C/C=C/C=C/[C@H](O[C@@H]2O[C@H](C)[C@@H](O)[C@H](N)[C@@H]2O)C[C@@H]2O[C@](O)(C[C@@H](O)C[C@@H](O)[C@H](O)CC[C@@H](O)C[C@@H](O)CC(=O)O[C@H]1C)C[C@H](O)[C@H]2C(=O)O [Amp B, Amphotericin B, reference compound]
- IC50 ([2]; Leishmania amazonensis): 0.5 ± 0.1 µM
- IC50 ([3]; Leishmania infantum): 0.3 ± 0.1 µM
- CC50 [7, 13]: 99.8 ± 3.7 µM

Molecule: O=C(O)c1ccc(CN/C(=N/C(=O)c2ccccc2)Nc2ccc(Br)cc2)cc1 [GVL1, (Z)-4-((2-benzoyl-3-(4-bromophenyl)guanidino)methyl) benzoic acid]
- IC50 ([1]; Leishmania infantum): 50.8 ± 2.2 µM
- IC50 ([2]; Leishmania amazonensis): 65 ± 2.4 µM
- IC50 ([3]; Leishmania infantum): 50 ± 1.2 µM
- CC50 ([7]; Table 1 (L. amazonensis series)): > 1000 µM
- CC50 [7, 14]: > 2000 µM

Molecule: N=C(N)NCCC[C@H](NC(=O)[C@H](CCCNC(=N)N)NC(=O)[C@H](CCC(N)=O)NC(=O)[C@H](CCCNC(=N)N)NC(=O)[C@H](CCCNC(=N)N)NC(=O)[C@H](CCCCN)NC(=O)[C@H](CCCCN)NC(=O)[C@H](CCCNC(=N)N)NC(=O)CNC(=O)[C@H](Cc1ccc(O)cc1)NC(=O)c1ccc(CN/C(=N/C(=O)c2ccccc2)Nc2ccc(Br)cc2)cc1)C(=O)O [GVL1-TAT] (X1-YGRKKRRQRR-OH)
- IC50 [1]: 1.2 ± 0.3 µM
- IC50 [2, 12]: 2.6 ± 0.8 µM
- IC50 [3, 12]: 1.2 ± 0.3 µM
- IC50 [4]: 5.3 µM and 5.32 µM
- IC50 [5]: 3.78 ± 0.1 µM
- inhibition at 20 µM [5]: ~92%
- IC50 ([6]; read-out: Amastigote IC50): 0.8 ± 0.06 µM
- permeabilization of vesicles (carboxyfluorescein release) [11]: no damage was observed in the vesicles
- CC50 [7, 13]: > 1000 µM
- CC50 [7, 14]: > 2000 µM
- IC50 ([8]; read-out: Amastigote IC50): 3.8 ± 0.3 µM

Reference: article PMC11768059, “Guanidines Conjugated with Cell-Penetrating Peptides: A New Approach for the Development of Antileishmanial Molecules” (Molecules, 2025)
